Reference: patent US12098217B2, “Fusion peptides as antimicrobial agents” (CENTRE NATIONAL DE LA RECHERCHE SCIENTIFIQUE, priority 2019, dated 2024)
Values after ≈ are worked out from the molar mass of the structure shown. Read-outs that look alike come from different tables or passages of the source. Square brackets hold non-standard residues; d marks the D form. Peptide text beside a SMILES is read from it. Cha = N[C@@H](CC1CCCCC1)C(=O)O

Legend:
[1] = tested on: E. coli D22 strain; test: microbe, parasite or virus in culture; type: cell-based; conditions: for antibacterial activity, in words: E. coli D22, microdilution broth assay
[2] = molecular target: Human PCNA (Homo sapiens, UniProt P12004); test: ITC, peptide interaction with human PCNA; type: binding; conditions: ITC 30° C.
Method: The inventors have compared the affinities of the prototypical P7 SC-binding peptide for the bacterial SC and for the eukaryotic functional homolog “Proliferating Cell Nuclear Antigen” PCNA. The same analysis was performed with the DPD1 peptide that contains a well-described specific PCNA Interacting Peptide (PIP) sequence ([…]).

[3] = tested on: E. coli ATCC 25922 (DSM 1103) strain; type: cell-based; conditions: ATCC 25922, 36 h
Method: E. coli strains were cultivated on either agar or liquid 1× Mueller Hinton broth unless specified. MIC assays were performed in duplicate in 96-well microtiter plates on the basis of the protocol recommended by the Clinical and Laboratory Standards Institute. Briefly, a mix of 5-6 fresh (less than 36 hours) colonies grown on MH agar plates were inoculated in 3 ml of MH broth and incubated for about 16 h at 37° C. under agitation. 30 μl of this saturated culture were inoculated in 3 ml of fresh medium and allowed to grow until OD600 nm of about 0.6-0.8. Dilution to an OD600 nm of 0.002 was made in MH broth. Within a time laps not exceeding 30 min, 50 μl of this cell suspension was added to 50 μl of MH broth (containing or not the peptide/antibiotic diluted in MH broth) in wells of a 96-well round bottom microwell plate (Greiner; final cell density about 2 to 5×10^5 cfu/ml). Plates were incubated at 37° C. for 18-24 h and final turbidity of each well was measured at 620 nm using a Multiskan FC microplate reader (Thermo Scientific). MIC was defined as the minimal antibiotic concentration that result in no increase of turbidity at that time. Each MIC determination was performed in duplicate and at least in two independent experiments. Plating of 75 μl of the content of the wells of interest on LB Agar plates was used to determine the MBC that is defined by a decrease of at least 99.9% of cell viability as compared to the number of viable cells in the inoculum (about 2 to 5×10^4 cfu).
The antimicrobial activities of these peptides have been tested against the E. coli ATCC 25922 (DSM 1103) strain in 1× Mueller-Hinton broth as mentioned above.
The antimicrobial activities of these peptides and controls have been tested against the E. coli ATCC 25922 (DSM 1103) strain in 1× Mueller-Hinton broth.

[4] = tested on: E. coli; conditions: cited from earlier work
[5] = tested on: E. coli D22 cells; conditions: FITC staining after exposure to equal amounts, FIG. 1
Method: FIG. 1 concerns the analysis of peptide penetration into E. coli cells. (a) Fluorescence microscopy of E. coli cells exposed to the three different FITC labeled peptides.
In order to analyse the penetration capacity of the peptides in E. coli D22 cells, FITC-labeled peptides were added to 1 ml of bacterial cultures (OD600=0.8) at a final concentration of 8 μg/ml. The cells were allowed to acquire the peptides for 1 h at 37° C., washed 3 times with 0.5 ml PBS, fixed with 1% formaldehyde solution in PBS for 45 min at room temperature, washed 3 times with 0.5 ml PBS and finally resuspended in 50 μl PBS. Cells were visualized using a Leica DM5500 microscope equipped with a 100× objective and images were processed using Fiji software. One-way ANOVA statistical analysis was performed with the R package.

[6] = molecular target: T1, E coli β SC (Escherichia coli, UniProt P0A988); test: Co-immunoprecipitation of FITC peptides with E. coli β SC; type: cell-based; conditions: E. coli D22 cells, 1 hour, 16 μM FITC labelled peptide, FIG. 4
T1 construct: endogenous in cells; host or cells: E. coli D22
Method: FIG. 4 concerns the co-immunoprecipitation of FITC-K-Py-P7 peptide with the E coli β SC. E. coli D22 cells were incubated for 1 hour with or without 16 μM of the indicated FITC labelled peptide (lanes 1 and 5: no peptide; lanes 2 and 6: FITC-K-Pyr; lanes 3 and 7: FITC-K-Py-P7Scr; lanes 4 and 8: FITC-K-Py-P7). Lanes 1-4: 5% of the pre-cleared extracts were loaded as input controls. Lanes 5: Ig G sepharose beads pull down of the pre-cleared extracts not exposed to anti-FITC antibody. Lanes 6 to 8: Ig G sepharose beads pull down of the pre-cleared extracts previously incubated with FITC-labelled peptides and then exposed to anti-FITC antibody. Lanes 9-11: purified native β SC protein (lane 9: 5 ng; lane 10: 10 ng; lane 11: 20 ng). Upper image: western blot using the Ab 246, β SC specific monoclonal antibody. Lower image: total protein staining of the same membrane. M: Molecular weight markers.

Sequence of Human PCNA (P12004 whole entry): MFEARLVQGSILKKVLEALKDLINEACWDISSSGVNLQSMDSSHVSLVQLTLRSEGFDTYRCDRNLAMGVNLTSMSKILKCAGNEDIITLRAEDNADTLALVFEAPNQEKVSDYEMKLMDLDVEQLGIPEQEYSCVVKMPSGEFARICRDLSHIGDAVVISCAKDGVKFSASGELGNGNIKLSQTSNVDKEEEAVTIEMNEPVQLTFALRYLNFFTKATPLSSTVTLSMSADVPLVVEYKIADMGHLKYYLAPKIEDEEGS
T1 sequence (P0A988 whole entry): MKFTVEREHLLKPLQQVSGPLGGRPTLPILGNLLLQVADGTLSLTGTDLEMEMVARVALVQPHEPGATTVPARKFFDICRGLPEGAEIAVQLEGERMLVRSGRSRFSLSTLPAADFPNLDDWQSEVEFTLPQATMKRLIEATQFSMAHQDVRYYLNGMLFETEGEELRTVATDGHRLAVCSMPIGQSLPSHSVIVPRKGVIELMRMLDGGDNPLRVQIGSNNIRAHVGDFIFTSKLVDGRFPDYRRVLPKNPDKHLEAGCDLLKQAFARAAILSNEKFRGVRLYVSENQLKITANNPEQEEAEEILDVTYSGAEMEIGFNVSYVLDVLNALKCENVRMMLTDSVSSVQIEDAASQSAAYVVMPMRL

| Compound | MIC (μM) ([1]; D22 strain) [µM] | MIC (μg/ml) ([1]; D22 strain) [µg/mL] | antibacterial activity, in words [1] | MIC [3] [µM] | other results |
| --- | --- | --- | --- | --- | --- |
| CC(=O)N[C@@H](CCC(N)=O)C(=O)N[C@@H](CC1CCCCC1)C(=O)N[C@@H](CC(=O)O)C(=O)N[C@@H](CC(C)C)C(=O)N[C@@H](Cc1ccccc1)C(=O)O [Peptide P7, Ac-QChaDLF-OH, reference compound] (Ac-Q[Cha]DLF-OH) | >357 | >256 | fails to induce any detectable antibacterial activity | – | interaction with Human PCNA, in words [2]: no interaction could be detected |
| CC[C@H](C)[C@H](NC(=O)[C@@H](CCCNC(=N)N)NC(=O)[C@H](CCCNC(=N)N)NC(=O)[C@@H]1CCCN1C(=O)[C@@H]1CCCN1C(=O)[C@H](CCCNC(=N)N)NC(=O)[C@@H]1CCCN1C(=O)[C@H](CCCNC(=N)N)NC(=O)[C@@H]1CCCN1C(=O)[C@H](CC(C)C)NC(=O)[C@H](Cc1ccc(O)cc1)NC(=O)[C@@H]1CCCN1C(=O)[C@@H]1CCCN1C(=O)[C@H](CCCCN)NC(=O)[C@H](CC(=O)O)NC(=O)[C@@H](N)C(C)C)C(=O)N[C@@H](Cc1ccc(O)cc1)C(=O)N[C@@H](CC(N)=O)C(=O)N[C@H](CCCNC(=N)N)C(N)=O [Peptide P28, reference compound] (H-VDKPPYLPRPRPPR[dR]IYN[dR]-NH2; N-terminus assumed) | – | – | – | 2 to 8 | MIC of previous reports [4]: 0.82 µM; MIC of previous reports ([4]; other E. coli strains and/or culture media): 2 µg/mL |
| CC[C@H](C)[C@H](NC(=O)[C@@H](CCCNC(=N)N)NC(=O)[C@H](CCCNC(=N)N)NC(=O)[C@@H]1CCCN1C(=O)[C@@H]1CCCN1C(=O)[C@H](CCCNC(=N)N)NC(=O)[C@@H]1CCCN1C(=O)[C@H](CCCNC(=N)N)NC(=O)[C@@H]1CCCN1C(=O)[C@H](CC(C)C)NC(=O)[C@H](Cc1ccc(O)cc1)NC(=O)[C@@H]1CCCN1C(=O)[C@@H]1CCCN1C(=O)[C@H](CCCCN)NC(=O)[C@H](CC(=O)O)NC(=O)[C@@H](N)C(C)C)C(=O)N[C@@H](Cc1ccc(O)cc1)C(=O)N[C@@H](CC(N)=O)C(=O)N[C@H](CCCNC(=N)N)C(=O)N[C@@H](CC(N)=O)C(=O)NCC(=O)N1CCC[C@H]1C(=O)N[C@@H](CCCNC(=N)N)C(=O)N[C@@H](CCC(N)=O)C(=O)N[C@@H](CC1CCCCC1)C(=O)N[C@@H](CC(=O)O)C(=O)N[C@@H](CC(C)C)C(=O)N[C@@H](Cc1ccccc1)C(=O)O [Peptide P30] (H-VDKPPYLPRPRPPR[dR]IYN[dR]NGPRQ[Cha]DLF-OH) | 0.15 to 0.29 | 0.5 to 1 | no increase in the activity | 16 to 32 | – |
| CC[C@H](C)[C@H](NC(=O)[C@@H](CCCNC(=N)N)NC(=O)[C@H](CCCNC(=N)N)NC(=O)[C@@H]1CCCN1C(=O)[C@@H]1CCCN1C(=O)[C@H](CCCNC(=N)N)NC(=O)[C@@H]1CCCN1C(=O)[C@H](CCCNC(=N)N)NC(=O)[C@@H]1CCCN1C(=O)[C@H](CC(C)C)NC(=O)[C@H](Cc1ccc(O)cc1)NC(=O)[C@@H]1CCCN1C(=O)[C@@H]1CCCN1C(=O)[C@H](CCCCN)NC(=O)[C@H](CC(=O)O)NC(=O)[C@@H](N)C(C)C)C(=O)N[C@@H](Cc1ccc(O)cc1)C(=O)N[C@@H](CC(N)=O)C(=O)N[C@H](CCCNC(=N)N)C(=O)N[C@@H](CC(N)=O)C(=O)NCC(=O)N1CCC[C@H]1C(=O)N[C@@H](CCCNC(=N)N)C(=O)N[C@@H](CC1CCCCC1)C(=O)N[C@@H](Cc1ccccc1)C(=O)N[C@@H](CCC(N)=O)C(=O)N[C@@H](CC(C)C)C(=O)N[C@@H](CC(=O)O)C(=O)O [Peptide P120] (H-VDKPPYLPRPRPPR[dR]IYN[dR]NGPR[Cha]FQLD-OH) | 0.29 to 0.58 | 1 to 2 | – | – | – |
| CC[C@H](C)[C@H](NC(=O)[C@@H]1CCCN1C(=O)[C@H](CCCNC(=N)N)NC(=O)[C@@H]1CCCN1C(=O)[C@@H]1CCCN1C(=O)[C@@H](NC(=O)[C@@H]1CCCN1C(=O)[C@H](CCCNC(=N)N)NC(=O)[C@@H]1CCCN1C(=O)[C@H](CC(C)C)NC(=O)[C@H](Cc1ccc(O)cc1)NC(=O)[C@H](CO)NC(=O)CNC(=O)[C@H](CCCCN)NC(=O)[C@H](CC(=O)O)NC(=O)[C@@H](NC(=O)[C@H](CCCCN)NC(=O)c1ccc2c(c1)C(=O)OC21c2ccc(O)cc2Oc2cc(O)ccc21)C(C)C)[C@@H](C)O)C(=O)N[C@@H](Cc1ccc(O)cc1)C(=O)N[C@@H](CC(N)=O)C(=O)N[C@@H](CCCNC(=N)N)C(=O)N[C@@H](CC(N)=O)C(=O)NCC(=O)N1CCC[C@H]1C(=O)N[C@@H](CCCNC(=N)N)C(=O)N[C@@H](CCC(N)=O)C(=O)N[C@@H](CC1CCCCC1)C(=O)N[C@@H](CC(=O)O)C(=O)N[C@@H](CC(C)C)C(=O)N[C@@H](Cc1ccccc1)C(=O)O [Peptide P150] | 16.9 to 33.8 | 64 to 128 | – | – | factor by which MIC is lower than that of P122 [1]: 4 to 16; MBC ([1]; D22 strain): 128 µg/mL (≈ 33.7 µM); entry into E. coli cells, times less efficiently than P122 [5]: about 3 times; binding of SC within the bacterial cytoplasm (co-immunoprecipitation), in words [6]: can efficiently bind SC |
